The assay concerns dry eye induced by scopolamine and extractor hood. Put plainly: Dry eye model (scopolamine + desiccation), tear production by Phenol Red test (PRTT). It counts as in vivo, mice. The note with it: instillations of 0.1% twice a day. As for the experimental part:
Dry eye is induced in mice by the combination of scopolamine, which blocks the muscarinic cholinergic receptors of lacrimal glands, and by placing the mice in an extractor hood that reduces humidity and increases air flow. The production and volume of aqueous tears, tear clearance, and the corneal barrier function are evaluated before treatment, and then twice a week after treatment. The results are compared between groups of untreated control mice, and groups of mice placed in the extractor hood, treated with the anticholinergic agent scopolamine, treated or not with tresperimus.
Male 129SV/CD-1 mice were used in this study and received three sub-cutaneous injections of 200 μl of scopolamine at 2.5 mg/mL in saline for 21 days. The mice were placed in an extractor hood (humidity <50%) during the whole experiment.
Tear production (PRTT) was measured with cotton threads impregnated with Phenol Red (Zone-quick; Menicon, Japan) applied to the ocular surface in the lateral canthus for 60 seconds. Wetting of the thread was measured in millimeters, using the scale on the cotton thread.

The structures appear in SMILES notation.

On to `C[C@@H]1C[C@H]2[C@@H]3CCC4=CC(=O)C=C[C@]4(C)[C@@]3(F)[C@@H](O)C[C@]2(C)[C@@]1(O)C(=O)CO` [dexamethasone], for which the “Tear volume (Phenol Red test)” value was “no significant effect”.

These data come from patent publication US20130190278A1, “Compounds for the Treatment/Prevention of Ocular Inflammatory Diseases” (Laboratoires Fournier SA, priority 2010, published 2013).
